One data set deals with T1, MRP (Homo sapiens, UniProt P33527).
T1 construct: endogenous in cells
Briefly: Inhibition of MRP-mediated calcein-AM extrusion (calcein accumulation) in S1MRP and HL60 ADR cells. Format: cell-based.

The target in data set [1] is T2, MDR1 (Homo sapiens, UniProt P08183). The data set can be described thus: Inhibition of MDR1-mediated calcein-AM extrusion (calcein accumulation) in 3T3 MDR and K562 MDR cells.
The subject of another data set is P388-MDRa cells. Briefly: Cytotoxicity assay, adriamycin resistance. Format: cell-based, murine. The following applies: Mus musculus; P388-MDRa cell line. An excerpt:
(§1) Elapsed time is shown on the abscissa and fluorescence intensity in arbitrary units is shown on the ordinate.

Data set [2] concerns P388-C cells. Briefly: Cytotoxicity assay, adriamycin resistance. The data set is classed as cell-based, murine. The following applies: Mus musculus; P388-C control cell line.
Source text: as §1

Another data set relates to P388-MDRb cells. The data set can be described thus: Cytotoxicity assay, adriamycin resistance. Format: cell-based, murine. The following applies: Mus musculus; P388-MDRb cell line.
Source text: as §1

The subject of a further data set is K562-MDR cells. The data set can be described thus: Cytotoxicity assay, 3 days culture with adriamycin. The data set is classed as cell-based. The following applies: Homo sapiens, 72 h, K562-MDR cell line, read-out: Resistance to Adriamycin (IC50, ng/ml). As to the method: (§2) Cells were cultured for 3 days under standard conditions in the presence of 0.1-100 ng/ml adriamycin. The number of cells in the different cell cultures is given as the percentage of the number of cells counted in the culture not treated with the drug. As it can well be seen on FIG. 5, the really expressed drug resistance is in much better accordance with the results obtained by the method of the invention based on the measurement of calcein accumulation than with those obtained by the traditional immunological measurement of MDR expression.
(§3) Cells were cultured for 3 days under standard conditions in the presence of 0.1-100 ng/ml adriamycin. The number of cells in the different cell cultures is given as the percentage of the number of cells counted in the culture not treated with the drug.

In a further data set the test system is K562-mMDR cells. The data set can be described thus: Cytotoxicity assay, 3 days culture with adriamycin. The following applies: Homo sapiens, 72 h, K562-mMDR cell line (inactive mutant MDR protein), read-out: Resistance to Adriamycin (IC50, ng/ml). The data set is classed as cell-based. The protocol:
as §2, §3

Another data set concerns K562-C cells. Briefly: Cytotoxicity assay, 3 days culture with adriamycin. The following applies: Homo sapiens, 72 h, K562-C cell line, read-out: Resistance to Adriamycin (IC50, ng/ml). Format: cell-based. The protocol:
as §2, §3

A further data set has as its target MDR dependent ATPase (Homo sapiens, UniProt P08183). The following applies: cited from earlier work.
Data set [3] deals with T2, MDR1.
Data set [4] concerns P388-C cells. Briefly: Calcein accumulation by fluorescent spectrophotometry in control cells. Format: cell-based, murine. The following applies: 100 μmol/l verapamil.
Source text: as §1

The next data set deals with KB3 cells. The data set can be described thus: Calcein accumulation by flow cytometry in control cells. The following applies: 100 μmol/l verapamil pretreatment 5 min, control cell line KB3.
Setting [5] is: inhibition of MRP-mediated calcein-AM extrusion, S1MRP and HL60 ADR cells, range of at least 3 independent experiments with each cell line, read-out: IC50 MRP.
Setting [6] is: read-out: IC50 MDR1, inhibition of MDR1-mediated calcein-AM extrusion, 3T3 MDR and K562 MDR cells, range of at least 3 independent experiments, > = 50% inhibition not achieved (a solubility problem, b esterase inhibition).

Converted amounts (≈) assume the structure as drawn. Where two headings read alike, the source gives them in different places.

T1 sequence (P33527 whole entry): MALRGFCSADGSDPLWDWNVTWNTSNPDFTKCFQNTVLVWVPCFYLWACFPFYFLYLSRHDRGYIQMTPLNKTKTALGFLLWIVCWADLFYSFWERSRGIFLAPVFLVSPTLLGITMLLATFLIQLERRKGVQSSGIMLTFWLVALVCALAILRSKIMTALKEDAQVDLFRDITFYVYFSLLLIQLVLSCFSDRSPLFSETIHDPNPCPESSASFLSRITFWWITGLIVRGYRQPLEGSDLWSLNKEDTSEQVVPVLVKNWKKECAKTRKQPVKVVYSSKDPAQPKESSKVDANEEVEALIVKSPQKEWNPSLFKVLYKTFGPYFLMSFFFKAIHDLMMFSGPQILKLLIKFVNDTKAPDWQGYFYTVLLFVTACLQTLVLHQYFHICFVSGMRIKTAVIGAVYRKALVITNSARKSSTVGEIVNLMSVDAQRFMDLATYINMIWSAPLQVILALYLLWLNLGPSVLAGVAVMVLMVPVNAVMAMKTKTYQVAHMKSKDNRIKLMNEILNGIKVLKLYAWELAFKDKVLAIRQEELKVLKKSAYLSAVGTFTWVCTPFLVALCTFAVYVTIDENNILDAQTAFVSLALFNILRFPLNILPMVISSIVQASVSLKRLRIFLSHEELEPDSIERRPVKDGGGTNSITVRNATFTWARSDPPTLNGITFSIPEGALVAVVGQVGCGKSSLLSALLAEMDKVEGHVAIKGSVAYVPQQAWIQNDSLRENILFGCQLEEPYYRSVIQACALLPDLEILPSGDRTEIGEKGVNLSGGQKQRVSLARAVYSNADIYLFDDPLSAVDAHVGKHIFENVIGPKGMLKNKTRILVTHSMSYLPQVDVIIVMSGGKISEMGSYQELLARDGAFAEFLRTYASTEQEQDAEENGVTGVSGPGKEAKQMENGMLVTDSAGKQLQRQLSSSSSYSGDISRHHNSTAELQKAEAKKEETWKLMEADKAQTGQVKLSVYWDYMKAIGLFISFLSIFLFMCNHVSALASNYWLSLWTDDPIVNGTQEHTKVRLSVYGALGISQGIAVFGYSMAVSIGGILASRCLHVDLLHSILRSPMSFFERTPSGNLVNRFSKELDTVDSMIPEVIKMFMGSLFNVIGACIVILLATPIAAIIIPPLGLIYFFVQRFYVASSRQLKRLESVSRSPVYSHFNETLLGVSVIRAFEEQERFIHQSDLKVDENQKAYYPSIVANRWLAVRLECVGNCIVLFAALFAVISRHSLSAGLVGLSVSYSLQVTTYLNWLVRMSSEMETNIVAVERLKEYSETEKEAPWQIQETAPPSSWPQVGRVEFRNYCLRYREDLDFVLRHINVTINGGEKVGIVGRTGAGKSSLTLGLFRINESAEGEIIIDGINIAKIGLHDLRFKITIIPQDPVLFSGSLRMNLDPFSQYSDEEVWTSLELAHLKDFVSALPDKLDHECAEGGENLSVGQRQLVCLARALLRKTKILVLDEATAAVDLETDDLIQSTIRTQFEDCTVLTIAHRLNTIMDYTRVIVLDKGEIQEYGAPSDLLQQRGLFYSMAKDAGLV
T2 sequence (P08183 whole entry): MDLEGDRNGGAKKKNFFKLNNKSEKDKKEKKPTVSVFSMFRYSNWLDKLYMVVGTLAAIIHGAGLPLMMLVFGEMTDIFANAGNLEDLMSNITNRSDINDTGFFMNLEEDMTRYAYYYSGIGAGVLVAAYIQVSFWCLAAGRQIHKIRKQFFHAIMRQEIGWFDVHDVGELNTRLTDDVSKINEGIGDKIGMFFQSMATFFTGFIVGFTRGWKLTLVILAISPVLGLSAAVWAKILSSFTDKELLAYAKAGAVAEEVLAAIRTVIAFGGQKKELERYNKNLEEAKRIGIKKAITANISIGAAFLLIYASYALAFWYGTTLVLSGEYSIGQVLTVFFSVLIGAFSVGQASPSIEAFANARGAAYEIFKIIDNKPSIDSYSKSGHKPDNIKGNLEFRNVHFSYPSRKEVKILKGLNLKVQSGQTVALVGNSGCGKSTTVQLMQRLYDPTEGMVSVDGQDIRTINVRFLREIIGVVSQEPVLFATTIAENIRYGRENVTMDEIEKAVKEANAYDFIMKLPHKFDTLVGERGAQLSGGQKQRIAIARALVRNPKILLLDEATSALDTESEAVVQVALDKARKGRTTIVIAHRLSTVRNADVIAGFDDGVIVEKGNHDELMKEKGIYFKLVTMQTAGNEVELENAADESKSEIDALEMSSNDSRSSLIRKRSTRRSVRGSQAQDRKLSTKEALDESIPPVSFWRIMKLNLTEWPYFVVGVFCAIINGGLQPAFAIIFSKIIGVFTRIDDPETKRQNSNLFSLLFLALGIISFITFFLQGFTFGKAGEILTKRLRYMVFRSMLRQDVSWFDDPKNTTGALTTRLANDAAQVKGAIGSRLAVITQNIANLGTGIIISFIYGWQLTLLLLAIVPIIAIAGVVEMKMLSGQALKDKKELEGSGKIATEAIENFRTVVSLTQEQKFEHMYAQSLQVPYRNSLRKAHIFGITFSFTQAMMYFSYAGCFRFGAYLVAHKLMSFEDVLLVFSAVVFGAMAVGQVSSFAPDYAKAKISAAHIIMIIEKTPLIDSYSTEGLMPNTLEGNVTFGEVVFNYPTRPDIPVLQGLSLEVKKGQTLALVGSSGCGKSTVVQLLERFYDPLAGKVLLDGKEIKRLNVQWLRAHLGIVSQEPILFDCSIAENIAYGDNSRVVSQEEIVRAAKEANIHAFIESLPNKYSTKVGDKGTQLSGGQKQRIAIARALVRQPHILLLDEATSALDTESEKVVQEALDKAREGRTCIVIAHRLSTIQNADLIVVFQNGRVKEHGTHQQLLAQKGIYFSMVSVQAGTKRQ
Sequence of MDR dependent ATPase (P08183 whole entry): as above
Protocol for KB3 cells: In the experiments shown in FIG. 2 a drug sensitive (control, cell line KB3) and three increasingly multi-drug resistant (cell lines KB-V1a-c) human epidermoid carcinoma cell lines were examined.
As all the specimens were incubated for the same time (10 min) with calcein-AM, the measure of the accumulation of calcein detected exactly after 10 minutes can be taken as the rate of calcein accumulation.

Turning to `C[CH2][Hg][S]c1ccccc1C(=O)[O-].[Na+]` [Merthiolate], the IC50 was 10 to 20 µM at MRP (setting [5]) and greater than 200 µM at MDR1 [1] (setting [6]).

As to `O=c1c(-c2ccc(O)cc2)coc2cc(O)cc(O)c12` [Genistein], the IC50 on MRP (setting [5]) was 150 to 200 µM; at MDR1 [1] it was greater than 1000 µM.

On to `C=C(CC)C(=O)c1ccc(OCC(=O)O)c(Cl)c1Cl` [Ethacrynic acid], for which the IC50 on MRP (setting [5]) is 20 to 30 µM; at MDR1 [1] it was greater than 800 µM.

`COc1cccc2c1C(=O)c1c(O)c3c(c(O)c1C2=O)C[C@@](O)(C(=O)CO)C[C@@H]3O[C@H]1C[C@H](N)[C@H](O)[C@H](C)O1` [Adriamycin]: the IC50 in the data set with P388-MDRa cells stood at 4 ng/mL (≈ 7.36 nM); in the data set on P388-C cells [2] it was 0.5 ng/mL (≈ 0.92 nM); in the data set with P388-MDRb cells, 9 ng/mL (≈ 16.6 nM); in the data set with K562-MDR cells, 3.1 ng/mL (≈ 5.7 nM); with K562-mMDR cells, 0.35 ng/mL (≈ 0.644 nM); with K562-C cells, 0.7 ng/mL (≈ 1.29 nM).

`CCN1C(=O)C=CC1=O` [NEM, N-ethylmaleimide]: the results for the IC50 at MRP (setting [5]) and on MDR1 [1] were 0.2 to 0.5 µM and greater than 50 µM, respectively.

Turning to `CCCN(CCC)S(=O)(=O)c1ccc(C(=O)O)cc1` [Probenacid, Probenecid], the IC50 at MRP (setting [5]) was 500 to 800 µM; on MDR1 [1], greater than 2000 µM.

Consider `COc1ccc2c(c1)c(CC(=O)O)c(C)n2C(=O)c1ccc(Cl)cc1` [Indomethacin], for which the IC50 on MRP (setting [5]) was 10 to 20 µM; at MDR1 [1] it was greater than 800 µM.

For “calcein-acetoxy-methylester [calcein-AM]”, the “Ka, activation of the MDR dependent ATPase” value at MDR dependent ATPase is no more than 1 µmol/L.

Turning to `CCc1oc2ccccc2c1C(=O)c1cc(Br)c(O)c(Br)c1` [Benzbromarone], the IC50 on MDR1 [1] is greater than 500 µM.

`O=C(O)CCCc1ccc(N(CCCl)CCCl)cc1` [Chlorambucil]: the IC50 on MRP is 30 to 50 µM; on MDR1 [1], greater than 500 µM.

With `CC/C(=C(\c1ccccc1)c1ccc(OCCN(C)C)cc1)c1ccccc1` [Tamoxifen], at MRP (setting [5]), the IC50 was 3 to 6 µM.

On to `Clc1ccc(COC(Cn2ccnc2)c2ccc(Cl)cc2Cl)cc1` (centres unmarked) [Econazole], for which the results for the IC50 on MRP (setting [5]) and on MDR1 [1] were 3 to 10 µM and 1 to 3 µM, respectively.

In the case of `O=C1C(CC[S+]([O-])c2ccccc2)C(=O)N(c2ccccc2)N1c1ccccc1` (centres unmarked) [Sulfinpyrazone], the IC50 is 300 to 500 µM on MRP (setting [5]) and greater than 2000 µM at MDR1 [1].

For the compound `O=C1OC(c2ccc(O)c(S(=O)(=O)O)c2)(c2ccc(O)c(S(=O)(=O)O)c2)c2c(Br)c(Br)c(Br)c(Br)c21` [Bromosulfophthalein], the IC50 at MRP (setting [5]) is 100 to 150 µM; on MDR1 [1] (setting [6]), greater than 1000 µM.

Regarding `CC[C@H]1/C=C/C=C/C[C@@H](C)[C@H](O)[C@@](C)(O)C(=O)[C@@H](C)[C@H](O)[C@@H](C)C(=O)[C@@H](C)[C@H](O)[C@@H](C)/C=C/C(=O)O[C@@H]2[C@H](C)[C@H](CC1)O[C@]1(CC[C@H](C)[C@H](C[C@@H](C)O)O1)[C@H]2C` [Oligomycin], the IC50 at MRP (setting [5]) and on MDR1 [1] was 1 to 2 µM in each case.

As for `N#CC(C#N)=NNc1cccc(Cl)c1` [CCCP], the IC50 is 10 to 30 µM at MRP (setting [5]) and greater than 200 µM at MDR1 [3].

For `CCCCC[C@H](O)/C=C/[C@H]1C=CC(=O)[C@@H]1CCCCCCC(=O)O` [Prostaglandin A1], the IC50 at MRP (setting [5]) is 3 to 5 µM; at MDR1 [1] (setting [6]), greater than 100 µM.

Consider `CC[C@]1(O)C[C@@H]2CN(CCc3c([nH]c4ccccc34)[C@@](C(=O)OC)(c3cc4c(cc3OC)N(C)[C@H]3[C@@](O)(C(=O)OC)[C@H](OC(C)=O)[C@]5(CC)C=CCN6CC[C@]43[C@@H]65)C2)C1` [Vinblastine], for which the IC50 on MRP (setting [5]) was 2 to 5 µM.

Take `COc1ccc(CCN(C)CCCC(C#N)(c2ccc(OC)c(OC)c2)C(C)C)cc1OC` (centres unmarked) [Verapamil]: the “effect on rate of calcein accumulation” value in the data set on P388-C cells [4] was “not influenced”. Besides, the “effect on calcein accumulation” value in the data set on KB3 cells is given as “no detectable effect”.

With `O=[N+]([O-])c1ccc(O)c([N+](=O)[O-])c1` [2,4-DNP], the IC50 at MRP (setting [5]) is 30 to 50 µM; at MDR1 [1] (setting [6]), greater than 200 µM.

As for `C=C[C@H]1C[N@@]2CC[C@H]1C[C@H]2[C@H](O)c1ccnc2ccc(OC)cc12` [Quinine], the IC50 on MRP (setting [5]) was 50 to 100 µM.

The values are drawn from US6391656B2, “Assay and reagent kit for evaluation of multi-drug resistance in cells” (SOLVO Biotechnology, priority 1994, dated 2002).
